Results: patent US20110262442A1, “COMPOSITIONS FOR TREATING CNS DISORDERS” (Adenios, Inc., priority 2009, published 2011)

Assays:
hCMEC/D3 cells [1] = assay: Jurkat cell migration across hCMEC/D3-seeded Transwell (in vitro BBB); assay type: cell-based, human; conditions: hCMEC/D3 on Transwell, migrated cells counted after 24 hours
Excerpt: The blood brain barrier (“BBB”) is comprised of endothelial cells. During late stages of EAE, lymphocytes are known to cross the BBB. In order to determine if adenosine receptor stimulation of brain endothelial cells could promote lymphocyte migration through the BBB, an in vitro BBB was established. The human brain endothelial cell line hCMEC/D3 (Weksler et al., “Blood-brain Barrier-specific Properties of a Human Adult Brain Endothelial Cell Line,” […] (2005); Poller et al., “The Human Brain Endothelial Cell Line hCMEC/D3 as a Human Blood-brain Barrier Model for Drug Transport Studies,” J. Neurochem. 107(5):1358-1368 (2008), which are hereby incorporated by reference in their entirety) was obtained, which has been previously described as having BBB properties.
hCMEC/D3 cells were seeded onto Transwell and allowed to grow to confluencey. 2×10^6 Jurkat cells were added to the upper chamber with or without NECA (general adenosine receptor [AR] agonist), CCPA (A1 AR agonist), CGS 21860 (A2A AR agonist), or DMSO vehicle. After 24 hours, migrated cells in the lower chamber were counted. Values are relative to the number of cells that migrate through non-HCMECD3 seeded transwells.

Z310 cells = assay: Jurkat cell migration across Z310-seeded Transwell (choroid plexus); assay type: cell-based, murine; conditions: Z310 cells on Transwell, migrated cells counted after 24 hours, n=1
Experimental: The choroid plexus (“CP”) controls lymphocyte migration into the CNS. The CP expresses the A1 and A2A adenosine receptors. EAE is prevented in mice when A2A adenosine receptor activity is blocked. EAE is enhanced when the A1 adenosine receptor is missing. It was hypothesized that A2A adenosine receptor activation promotes lymphocyte migration across the CP. Z310 cells are a murine choroid plexus cell line. To test the hypothesis, Transwell membranes were seeded with Z310 cells and allowed to grow to confluencey. 2×10^6 Jurkat cells were added to the upper chamber with or with out NECA (n=1, general AR agonist), CCPA (n=1, AAR agonist), CGS 21860 (n=1, A2AAR agonist), or DMSO vehicle (n=1). After 24 hours, migrated cells in the lower chamber were counted. Values are relative to the number of cells that migrate through non-Z310 seeded transwells and the results are shown in FIG. 12.

hCMEC/D3 cells [2] = assay: cAMP levels in human brain endothelial cells (cAMP Screen kit); assay type: cell-based; conditions: 15 minutes treatment, various concentrations (CCPA: at high levels)
Experimental: Adenosine receptor activation regulates cAMP levels in cells. In order to determine the sensitivity of human brain endothelial cells to adenosine receptor induced cAMP regulation, human brain endothelial cells were cultured with adenosine receptor agonists at various concentrations, followed by cAMP level analysis, as shown in FIG. 13.
HCMECD3 cells were grown to confluencey on 24 well plates. As adenosine receptor (“AR”) stimulation is known to influence cAMP levels, cells were treated with or without various concentrations of NECA (general AR agonist), CCPA (A1 AR agonist), CGS 21860 (A2A AR agonist), DMSO vehicle, or Forksolin (induces cAMP). After 15 minutes, lysis buffer was added and the cells were frozen at −80 C to stop the reaction. Duplicate samples were used for each condition. cAMP levels were assayed using a cAMP Screen kit (Applied Biosystems, Foster City, Calif.).

blood brain barrier [3] = assay: Fluorimetric analysis of labeled dextrans in brain after i.v. drug administration; assay type: in vivo, mice; conditions: wild type mice, 10,000 Da FITC-dextran; for dextran entry into the CNS compared to NECA administration: 3 h after i.v. administration; for dextran entry into the CNS compared to vehicle treatment: 3 h after i.v. co-administration
Experimental: C57BL/6 mice from Jackson Laboratories were used as wild types. All mice used were aged 7-9 weeks and weighed between 20-25 g. All rats were aged 8 weeks and weighed 200-220 g. Mice and rats were bred and housed under specific pathogen-free conditions.
The adenosine receptor agonists NECA, CCPA and CGS 21860 were purchased from Tocris. Each was dissolved in DMSO then diluted in PBS to the desired concentration; in most cases final DMSO concentrations were <0.5% (vol/vol). For vehicle controls, DMSO was diluted in PBS to the same concentration. Dehydrated dextrans labeled with either FITC or Texas Red were purchased from Invitrogen and re-suspended in PBS to 10 mg ml^−1. All experiments involving dextran injection used 0.5 mg dextran in PBS. In experiments where drug and dextran were injected concomitantly, 0.5 mg of dextran was mixed with the drug to the desired concentration in a final volume of 200 μl. All injections were retro-orbital i.v. with a 27-gauge needle. In the SCH 58261 experiment, groups were administered vehicle or SCH 58261 for 4 d. Vehicle/drug and dextrans were injected on day 5 and tissues were collected 3 h after vehicle/drug administration. In Lexiscan experiments, Lexiscan was administered i.v. with 3 injections, 5 min apart and tissues were collected at 15 min unless otherwise indicated.
In dose-response experiments and experiments with the A1 AR and A2A AR knock-out mice, drugs and dextrans were injected concomitantly. After 3 h, the mice were anesthetized with ketamine/xylazine and subjected to a nose cone containing isoflurane. They were perfused with 25-50 ml ice-cold PBS through the left ventricle of the heart then decapitated. Their brains were removed, weighed and frozen for later analysis.
Ice-cold 50 mM Tris-Cl (pH 7.6) was added to frozen brains (100 μl per 100 mg brain) and were to thawed on ice. They were homogenized manually with ˜45 strokes of a dounce homogenizer in plastic 1.5 ml microfuge tubes then spun at 16.1 g in a microfuge for 30 min at room temperature (rt). The supernatants were transferred to new tubes and an equal volume absolute methanol was added. The samples were spun again at 16.1 g for 30 min at rt. Supernatant (200 μl) was transferred to a Corning costar 96 well black polystyrene assay plate (clear bottom). Additionally, a series of standards containing 0.001-10 μg ml^−1 dextran in 50% Tris-Cl/50% absolute methanol (vol/vol) was added to each plate. Absolute concentrations of dextrans were derived from these standard curves. Fluorimetric analysis was performed on a BioTek Synergy 4. FITC-dextran was detected at 488/519 (excitation/emission) and Texas Red-dextran was detected at 592/618.

brain endothelial cells = assay: Actin stress fiber induction in brain endothelial cells; assay type: cell-based
Experimental: To test this brain endothelial cells were treated with either CCPA (to agonize A1 adenosine receptors) or […] (to agonize the A2A adenosine receptor).

[4] = test system: Experimental Autoimmune Encephalomyelitis (EAE); assay: MOG-induced EAE induction and daily scoring; assay type: in vivo, mice
Excerpt: Cd73^−/− mice have been previously described (Thompson et al., “Crucial Role for Ecto-5′-Nucleotidase (CD73) in Vascular Leakage During Hypoxia,” J. Exp. Med. 200:1395-1405 (2004), which is hereby incorporated by reference in its entirety) and have been backcrossed to C57BL/6 for 14 generations. Cd73 mice have no overt susceptibility to infection and appear normal based on the size and cellular composition of their lymphoid organs and their T and B cell responses in in vivo and in vitro assays (Thompson et al., “Crucial Role for Ecto-5′-Nucleotidase (CD73) in Vascular Leakage During Hypoxia,” J. Exp. Med. 200:1395-1405 (2004), which is hereby incorporated by reference in its entirety). C57BL/6 and tcrα^−/− mice on the C57BL/6 background were purchased from The Jackson Laboratories. Mice were bred and housed under specific pathogen-free conditions at Cornell University or the University of Turku. For adenosine receptor blockade experiments, mice were given drinking water supplemented with 0.6 g/L of caffeine (Sigma) or 2 mg/kg SCH58261 (1 mg/kg s.c. and 1 mg/kg i.p.) in DMSO (45% vol. in PBS) or 45% DMSO alone starting 1 day before EAE induction and continuing throughout the experiment. All procedures performed on mice were approved by the relevant animal review committee.
EAE was induced by subjecting mice to the myelin oligodendrocyte glycoprotein (“MOG”) EAE-inducing regimen as described in Swanborg, “Experimental Autoimmune Encephalomyelitis in Rodents as a Model for Human Demyelinating Disease,” Clin. Immunol. Immunopathol. 77:4-13 (1995) and Bynoe et al., “Epicutaneous Immunization with Autoantigenic Peptides Induces T Suppressor Cells that Prevent Experimental Allergic Encephalomyelitis,” Immunity 19:317-328 (2003), which are hereby incorporated by reference in their entirety. Briefly, a 1:1 emulsion of MOG35-55 peptide (3 mg/ml in PBS) (Invitrogen) and complete Freund's adjuvant (CFA, Sigma) was injected subcutaneously (50 μl) into each flank. Pertussis toxin (PTX, 20 ng) (Biological Laboratories Inc.) was given intravenously (200 μl in PBS) at the time of immunization and again 2 days later. Mice were scored daily for EAE based on disease symptom severity; 0=no disease, 0.5-1=weak/limp tail, 2=limp tail and partial hind limb paralysis, 3=total hind limb paralysis, 4=both hind limb and fore limb paralysis, 5=death. Mice with a score of 4 were euthanized.

blood brain barrier [5] = assay: FITC-Dextran extravasation through the brain endothelium (brain sections); assay type: in vivo, mice; conditions: 10,000 MW FITC Dextran IP, 30 minutes
Experimental: In order to examine the effects of caffeine, a general adenosine receptor antagonist, on blood brain barrier permeability, mice were fed caffeine for several days and then injected with FITC Dextran, commonly used to assess endothelial permeability.
More particularly, mice were fed 0.6 g/l caffeine (Sigma, St. Louis, Mo.) in water or regular water ad lib for five days. Mice were injected IP with FITC Dextran (10,000 MW, Molecular Probes, Eugene, Oreg.) and after 30 minutes mice were perfused with ice cold PBS via the left ventricle. Brains were removed and snap frozen in OCT (Tissue Tek, Torrance, Calif.) and stored at −80° C. until sectioning. Tissue sections (5 μm) were stained with hematoxylin for light microscopy and with DAPI for a fluorescent counterstain.

Molecule	lymphocyte (Jurkat) migration across the in vitro BBB (hCMEC/D3 cells [1])	lymphocyte (Jurkat) migration across the CP (Z310 cells)	cAMP levels (hCMEC/D3 cells [2])	dextran entry into the CNS compared to NECA administration (blood brain barrier [3])	dextran entry into the CNS compared to vehicle treatment (blood brain barrier [3])	actin stress fibers compared to vehicle alone (brain endothelial cells)	EAE development ([4]; cd73−/− mice, caffeine 0.6 g/L in drinking water)	EAE development ([4]; wild type mice, caffeine 0.6 g/L in drinking water from 1 day prior to and throughout EAE experiment)	FITC-Dextran extravasation across the blood brain barrier (blood brain barrier [5]; CD73−/− mice fed 0.6 g/l caffeine for five days, compared with wild type mice)	FITC-Dextran extravasation across the blood brain barrier (blood brain barrier [5]; wild type mice (caffeine feeding experiment), compared with CD73−/− mice)	development of EAE (mean EAE score) ([4]; wild-type mice, 15 units/kg body weight i.p. every 4 days, vs PBS vehicle)
OC[C@H]1O[C@@H](n2cnc3c(NC4CCCC4)nc(Cl)nc32)[C@H](O)[C@@H]1O [CCPA, 2-chloro-N^6-cyclopentyladenosine]	induced lymphocyte migration at high levels	induced lymphocyte migration at high levels	increased cAMP levels	significantly lower than that observed after NECA administration	increased dextran entry into the CNS	induction of actin stress fibers was observed					
CCNC(=O)[C@H]1O[C@@H](n2cnc3c(N)nc(NCCc4ccc(CCC(=O)O)cc4)nc32)[C@H](O)[C@@H]1O [CGS 21680, 4-[2-[[6-Amino-9-(N-ethyl-b-D-ribofuranuronamidosyl)-9H-purin-2-yl]amino]ethyl]benzenepropanoic acid]	promoted lymphocyte migration across the in vitro BBB when used at a lower concentration	promoted lymphocyte migration across the CP	slightly increased cAMP levels	significantly lower than that observed after NECA administration	increased dextran entry into the CNS						
Cn1c(=O)c2c(ncn2C)n(C)c1=O [caffeine]							did not develop EAE	dramatically protected against EAE development	less FITC-Dextran extravasation	more FITC-dextran extravasation	
PEG-ADA: PEGylated adenosine deaminase (protein, UniProt P56658 2-363, looked up, PEGylated, PEGylated adenosine deaminase) Adenosine deaminase: AQTPAFNKPKVELHVHLDGAIKPETILYYGRKRGIALPADTPEELQNIIGMDKPLSLPEFLAKFDYYMPAIAGCREAVKRIAYEFVEMKAKDGVVYVEVRYSPHLLANSKVEPIPWNQAEGDLTPDEVVSLVNQGLQEGERDFGVKVRSILCCMRHQPSWSSEVVELCKKYREQTVVAIDLAGDETIEGSSLFPGHVKAYAEAVKSGVHRTVHAGEVGSANVVKEAVDTLKTERLGHGYHTLEDATLYNRLRQENMHFEVCPWSSYLTGAWKPDTEHPVVRFKNDQVNYSLNTDDPLIFKSTLDTDYQMTKNEMGFTEEEFKRLNINAAKSSFLPEDEKKELLDLLYKAYGMPSPASAEQCL											inhibits the development of EAE
